From patent publication US8221738B2, “Method for enhanced uptake of viral vectors in the myocardium” (Celladon Corporation, priority 2008, dated 2012) come the findings set out here.

The test system of one data set is SERCA2a mRNA. Put plainly: SERCA2a mRNA expression via RT-PCR in heart sections, 30 day single dose tissue distribution study. The settings on record: nitroglycerin given with AAV1/SERCA2a; especially deep myocardial regions (septum, middle layer anterior wall). The class given is in vivo, Göttingen Minipigs. The protocol: (§1) Administration on Day 0 was via the direct coronary infusion procedure described below. Animals from Groups 1-3 were dosed with a total volume of 12 mL of AAV1/SERCA2a solution which was infused at a constant rate of 1.2 mL/minute over a 10 minute period. Animals from Groups 3 and 4 received nitroglycerin as a bolus intracoronary injection immediately prior to administration of AAV1/SERCA2a. Animals from Group 3 were dosed with a total volume of 12 mL of AAV1/SERCA2a and nitroglycerin solution, which was infused at a constant rate of 1.2 mL/minute over a 10 minute period. Animals from Group 4 were dosed with a total volume of 12 mL of normal saline, which was infused at a constant rate of 1.2 mL/minute over a 10 minute period. The direct infusion system is composed of standard (commercially available) components including a conventional guide sheath, 0.014″ guide-wire, a 5F infusion (guide) catheter and two programmable syringe pumps. […]
Total mRNA and protein expression in the left ventricle of individual sections was calculated (sum of sections 1-10 in FIG. 1), and the septum (section #5 in FIG. 1), and the middle layer anterior wall (section #6 in FIG. 1) were also analyzed separately, as these regions represent deep myocardium, furthest from the site of infusion. […]

The nature of data set [1]: Hemodynamic monitoring (mean aortic/arterial pressure) during administration of AAV1/SERCA2a. In kind it is in vivo, Göttingen Minipigs. To be noted: Groups 3 and 4 (nitroglycerin treated animals); maximum; except one time point in group 4. On the procedure: as §1, with “pumps. The direct intracoronary infusion procedure began with introduction of the conventional guide sheath using a common carotid arterial or femoral arterial approach. The Coronary Infusion Catheter (e.g., Cordis Vista Brite Tip Guiding Catheter or similar model appropriate for cannulation of the left main coronary artery) was then placed in the left main coronary artery under fluoroscopic guidance.” for “pumps.”

On to `O=[N+]([O-])OCC(CO[N+](=O)[O-])O[N+](=O)[O-]` [nitroglycerin, glyceryl trinitrate], for which the vector uptake entry in the data set on SERCA2a mRNA is on record as “enhanced”. Also, the “decrease in Mean arterial pressure (MAP) compared to baseline” value in data set [1] is listed as at most 6 mm Hg.
